From US8569267B2, “Tetracyclic tetrahydrofuran derivatives containing cyclic amine side chain” (Janssen Pharmaceutica, NV, priority 2005, dated 2013)

Assays:
[1] = biological target: T1, NET (norepinephrine transporter) (Rattus norvegicus, UniProt Q63380); assay: In vitro determination of NET reuptake inhibition ([3H]Nixosetine binding, rat brain cortex); details: rat brain cortex; for IC50: read-out: NET pIC50 (converted)
T1 construct: Cortex from rat brain was collected and homogenised; from tissue; host or cells: rat brain cortex
In short: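 Rat cortex homogenised in Tris 50 mM, NaCl 120 mM, KCl 5 mM, pH 7.4 was used for competition binding against [3H]nisoxetine. Bound radioligand was collected by filtration on GF/B filters and counted by scintillation. Percentage specific binding and competition curves were derived.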

[2] = biological target: T2, human cloned 5-HT2C receptor, expressed in CHO cells (Homo sapiens, UniProt P28335); assay: In vitro binding affinity for 5-HT2C receptor ([3H]mesulergine radioligand binding); details: human cloned 5-HT2C receptor; for IC50: read-out: 5-HT2C pIC50 (converted)
T2 construct: expressed in transfected cells; host or cells: CHO cells
T2 sequence (P28335 33-458): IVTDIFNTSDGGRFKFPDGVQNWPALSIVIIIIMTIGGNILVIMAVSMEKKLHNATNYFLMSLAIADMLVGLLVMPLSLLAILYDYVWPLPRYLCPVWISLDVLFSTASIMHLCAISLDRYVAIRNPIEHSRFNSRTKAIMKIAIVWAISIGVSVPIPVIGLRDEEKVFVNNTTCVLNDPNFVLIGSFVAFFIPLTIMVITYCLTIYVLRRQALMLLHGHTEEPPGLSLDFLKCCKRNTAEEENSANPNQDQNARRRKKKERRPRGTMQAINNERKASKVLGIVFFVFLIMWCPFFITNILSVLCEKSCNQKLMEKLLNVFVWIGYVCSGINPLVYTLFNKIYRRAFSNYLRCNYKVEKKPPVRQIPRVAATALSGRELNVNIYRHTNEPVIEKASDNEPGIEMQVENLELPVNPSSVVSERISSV
In short: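 Competition radioligand binding: varying test-compound concentrations incubated with receptor preparation and radioligand to binding equilibrium. Bound radioactivity separated from free and counted; affinity inferred from concentration-dependent inhibition of radioligand binding.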

[3] = biological target: T3, human Dopamine D2L receptor (Homo sapiens, UniProt P14416); assay: In vitro binding affinity for human D2L receptor ([3H]Spiperone binding); details: human D2L receptor-transfected CHO cell membranes; for IC50: read-out: D2L pIC50 (converted)
T3 construct: expressed in transfected cells; host or cells: CHO cells
In short: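 Membranes from CHO cells transfected with the receptor were incubated with [3H]Spiperone (diluted to 2 nmol/L before addition) and compound for 30 min at 37° C. Buffer was Tris-HCl, pH 7.7, with NaCl, CaCl2, MgCl2 and KCl, and non-specific binding was defined with 10^−6 mol/l Butaclamol. Bound radioactivity was collected by filtration, counted by scintillation, and competition curves calculated as percent specific binding.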

[4] = biological target: T4, human cloned 5-HT2A receptor, expressed in L929 cells (Homo sapiens, UniProt P28223); assay: In vitro binding affinity for 5-HT2A receptor ([125I]R91150 radioligand binding); details: human cloned 5-HT2A receptor in L929 cells, [125I]R91150; for IC50: read-out: 5-HT2A pIC50 (converted)
T4 construct: expressed in transfected cells; host or cells: L929 cells
Method: In Vitro Binding Affinity for 5-HT2A and 5-HT2C Receptors
The interaction of the compounds of Formula (I) with 5-HT2A and 5-HT2C receptors was assessed in in vitro radioligand binding experiments. […] During the incubation, the radioligands bind to the receptor. When equilibrium of binding is reached, the receptor bound radioactivity is separated from the non-bound radioactivity, and the receptor bound activity is counted. The interaction of the test compounds with the receptors is assessed in competition binding experiments. Various concentrations of the test compound are added to the incubation mixture containing the tissue preparation and the radioligand. Binding of the radioligand will be inhibited by the test compound in proportion to its binding affinity and its concentration. The affinities of the compounds for the 5-HT2 receptors were measured by means of radioligand binding studies conducted with: (a) human cloned 5-HT2A receptor, expressed in L929 cells using [^125I]R91150 as radioligand and (b) human cloned 5-HT2C receptor, expressed in CHO cells using [^3H]mesulergine as radioligand.

T1 sequence (Q63380 1-617): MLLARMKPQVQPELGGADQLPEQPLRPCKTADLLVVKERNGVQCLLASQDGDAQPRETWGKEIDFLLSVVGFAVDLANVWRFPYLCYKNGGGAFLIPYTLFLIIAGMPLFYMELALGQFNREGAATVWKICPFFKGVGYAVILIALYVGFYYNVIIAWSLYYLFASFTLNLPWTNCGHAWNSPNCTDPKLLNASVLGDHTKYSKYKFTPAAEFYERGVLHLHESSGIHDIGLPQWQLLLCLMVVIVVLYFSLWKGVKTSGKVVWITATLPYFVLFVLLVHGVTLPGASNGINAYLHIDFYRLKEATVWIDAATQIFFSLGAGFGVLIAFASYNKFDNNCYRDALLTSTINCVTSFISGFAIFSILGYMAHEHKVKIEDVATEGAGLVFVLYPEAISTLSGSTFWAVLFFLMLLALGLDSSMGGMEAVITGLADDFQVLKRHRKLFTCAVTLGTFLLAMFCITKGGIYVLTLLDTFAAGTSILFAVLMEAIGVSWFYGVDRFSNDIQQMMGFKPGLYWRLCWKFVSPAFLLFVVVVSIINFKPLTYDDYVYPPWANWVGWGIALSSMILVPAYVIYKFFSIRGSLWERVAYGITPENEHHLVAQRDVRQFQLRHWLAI
T3 sequence (P14416 whole entry): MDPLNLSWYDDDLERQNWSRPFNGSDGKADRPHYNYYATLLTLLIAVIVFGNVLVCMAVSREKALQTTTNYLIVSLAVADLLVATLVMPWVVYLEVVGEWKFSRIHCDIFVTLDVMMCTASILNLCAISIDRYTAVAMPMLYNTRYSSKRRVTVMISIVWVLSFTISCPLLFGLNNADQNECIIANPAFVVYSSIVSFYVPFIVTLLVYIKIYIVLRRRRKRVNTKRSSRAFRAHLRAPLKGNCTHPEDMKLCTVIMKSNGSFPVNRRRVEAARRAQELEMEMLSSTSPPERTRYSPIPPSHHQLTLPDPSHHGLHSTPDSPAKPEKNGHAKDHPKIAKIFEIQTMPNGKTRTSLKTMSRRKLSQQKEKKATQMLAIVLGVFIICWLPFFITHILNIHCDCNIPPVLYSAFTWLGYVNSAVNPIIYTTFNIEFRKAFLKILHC
T4 sequence (P28223 whole entry): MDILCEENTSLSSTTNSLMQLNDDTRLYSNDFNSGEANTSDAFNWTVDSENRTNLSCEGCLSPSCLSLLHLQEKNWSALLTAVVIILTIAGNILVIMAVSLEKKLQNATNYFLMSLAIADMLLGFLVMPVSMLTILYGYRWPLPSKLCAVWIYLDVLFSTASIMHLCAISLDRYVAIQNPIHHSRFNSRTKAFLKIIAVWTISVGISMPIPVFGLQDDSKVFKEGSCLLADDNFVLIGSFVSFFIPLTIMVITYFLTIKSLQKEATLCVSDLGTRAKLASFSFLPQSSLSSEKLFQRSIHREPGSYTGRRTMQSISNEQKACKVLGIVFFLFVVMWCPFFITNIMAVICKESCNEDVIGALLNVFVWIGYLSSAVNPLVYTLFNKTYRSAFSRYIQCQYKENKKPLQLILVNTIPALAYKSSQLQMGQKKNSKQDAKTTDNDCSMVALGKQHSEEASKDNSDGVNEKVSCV

## OC1CCN(C[C@H]2C[C@@H]3c4ccccc4Cc4ccc(F)cc4[C@@H]3O2)C1 (stereo partly drawn) [Compound 1, [2R-(2α, 3aα, 12bβ)]-(3′RS) 1-(11-fluoro-3,3a,8,12b-tetrahydro-2H-1-oxa-dibenzo[e,h]azulen-2-ylmethyl)-pyrrolidin-3-ol.oxalate (1:1)]
[1]
  IC50: 479 nM
[2]
  IC50: 0.372 nM
[3]
  IC50: 7.41 nM
[4]
  IC50: 0.692 nM

## COC(=O)c1ccc(CN2CCN(CC3CC4c5ccccc5Cc5ccc(F)cc5C4O3)CC2)cc1 (centres unmarked) [Compound 72]
[1]
  IC50: 1170 nM
[2]
  IC50: 60.3 nM
[3]
  IC50: 26.9 nM
[4]
  IC50: 30.9 nM

## CCOC(=O)CC1CN(C[C@H]2C[C@@H]3c4ccccc4Cc4ccc(F)cc4[C@@H]3O2)CCO1 (some centres unmarked) [Compound 135]
[1]
  IC50: 2450 nM
[2]
  IC50: 16.6 nM
[3]
  IC50: 32.4 nM
[4]
  IC50: 11.2 nM

## O=C1CCN(C[C@H]2C[C@@H]3c4ccccc4Cc4ccc(F)cc4[C@@H]3O2)C1 [Compound 7, [2R-(2α, 3aα, 12bβ)]1-(11-fluoro-3,3a,8,12b-tetrahydro-2H-1-oxa-dibenzo[e,h]-azulen-2-ylmethyl)-pyrrolidin-3-one]
[1]
  IC50: 1620 nM
[2]
  IC50: 2.95 nM
[3]
  IC50: 141 nM
[4]
  IC50: < 10 nM

## OCCC1CCN(CC2CC3c4ccccc4Cc4ccc(F)cc4C3O2)C1 (mixture of isomers) [Compound 6]
[1]
  IC50: 501 nM
[2]
  IC50: 1.7 nM
[3]
  IC50: 4.07 nM
[4]
  IC50: 1.45 nM

## Fc1ccc2c(c1)[C@@H]1O[C@@H](CN3CCN(CC4CCCCC4)CC3)C[C@@H]1c1ccccc1C2 [Compound 69]
[1]
  IC50: > 10000 nM
[2]
  IC50: 79.4 nM
[3]
  IC50: 7.24 nM
[4]
  IC50: 41.7 nM

## CC(=O)C1(c2ccccc2)CCN(C(=O)C2CCN(CC3CC4c5ccccc5Cc5ccc(F)cc5C4O3)CC2)CC1 (centres unmarked) [Compound 209]
[1]
  IC50: 5250 nM
[2]
  IC50: 12 nM
[3]
  IC50: 31.6 nM
[4]
  IC50: 4.68 nM

## CCN(CC)CCN(C)C(=O)C1CCN(CC2CC3c4ccccc4Cc4ccc(F)cc4C3O2)CC1 (centres unmarked) [Compound 199]
[1]
  IC50: > 10000 nM
[2]
  IC50: 1.2 nM
[3]
  IC50: 35.5 nM
[4]
  IC50: 6.46 nM

## COC(=O)C1CCN(C[C@H]2C[C@@H]3c4ccccc4Cc4ccc(F)cc4[C@@H]3O2)C1 (single isomer, unassigned) [Compound 11, [2R-(2α, 3aα, 12bβ)]-(3′RS) 1-(11-fluoro-3,3a,8,12b-tetrahydro-2H-1-oxa-dibenzo[e,h]azulen-2-ylmethyl)-pyrrolidine-3-carboxylic acid methyl ester.oxalate (1:1)]
[1]
  IC50: 8320 nM
[2]
  IC50: 0.708 nM
[3]
  IC50: 9.77 nM
[4]
  IC50: 2.04 nM

## Fc1ccc2c(c1)[C@@H]1O[C@@H](CN3CCCNCC3)C[C@@H]1c1ccccc1C2.O=C(O)C(=O)O.O=C(O)C(=O)O [Compound 267]
[1]
  NET pIC50: 5.10
[2]
  5-HT2C pIC50: 7.65
[3]
  D2L pIC50: 6.81
[4]
  5-HT2A pIC50: 7.84

## O=C(O)C(=O)O.OC1CCN(CC2CC3c4ccccc4Oc4ccc(Cl)cc4C3O2)CC1 (centres unmarked) [Compound 284]
[1]
  NET pIC50: <5
[2]
  5-HT2C pIC50: 7.38
[3]
  D2L pIC50: 7.14
[4]
  5-HT2A pIC50: 7.98

## Fc1ccc2c(c1)C1OC(CN3CCN(Cc4ccc(-c5ccc(Cl)cc5)o4)CC3)CC1c1ccccc1C2 (centres unmarked) [Compound 62]
[1]
  IC50: 3470 nM
[2]
  IC50: 107 nM
[3]
  IC50: 75.9 nM
[4]
  IC50: 47.9 nM

## Fc1ccc2c(c1)C1OC(CN3CCC(N4CCCCC4)CC3)CC1c1ccccc1C2 (centres unmarked) [Compound 172]
[1]
  IC50: 6760 nM
[2]
  IC50: 15.8 nM
[3]
  IC50: 43.7 nM
[4]
  IC50: 15.1 nM

## O=C(NC1CC1)N1CCN(CC2CC3c4ccccc4Cc4ccc(F)cc4C3O2)CC1 (stereo not drawn) [Compound 94, [2R-(2α, 3aα, 12bβ)]4-(11-fluoro-3,3a,8,12b-tetrahydro-2H-1-oxa-dibenzo[e,h]-azulen-2-ylmethyl)-piperazine-1-carboxylic acid cyclopropylamide.oxalate (1:1)]
[1]
  IC50: 10700 nM
[2]
  IC50: 2.19 nM
[3]
  IC50: 35.5 nM
[4]
  IC50: 0.389 nM

## O=C(NCCC(c1ccccc1)c1ccccc1)C1CCN(CC2CC3c4ccccc4Cc4ccc(F)cc4C3O2)CC1 (centres unmarked) [Compound 198]
[1]
  IC50: 7590 nM
[2]
  IC50: 16.2 nM
[3]
  IC50: 25.1 nM
[4]
  IC50: 8.13 nM

## O=C(CCN1CCN(CC2CC3c4ccccc4Cc4ccc(F)cc4C3O2)CC1)c1ccc(F)cc1 (centres unmarked) [Compound 52]
[1]
  IC50: 490 nM
[2]
  IC50: 2.88 nM
[3]
  IC50: 1.2 nM
[4]
  IC50: 3.39 nM

## Fc1ccc2c(c1)[C@@H]1O[C@@H](CN3CCN(c4cccc(C(F)(F)F)n4)CC3)C[C@@H]1c1ccccc1C2 [Compound 119]
[1]
  IC50: 4070 nM
[2]
  IC50: 51.3 nM
[3]
  IC50: 158 nM
[4]
  IC50: 10.2 nM

## O=C(Nc1ccc(F)cc1)OCC1CCN(CC2CC3c4ccccc4Cc4ccc(F)cc4C3O2)C1 (centres unmarked) [Compound 23]
[1]
  IC50: 3800 nM
[2]
  IC50: 3.8 nM
[3]
  IC50: 5.62 nM
[4]
  IC50: 2.95 nM

## OC(COc1ccc(F)cc1)CN1CCN(CC2CC3c4ccccc4Cc4ccc(F)cc4C3O2)CC1 (mixture of isomers) [Compound 57]
[1]
  IC50: > 10000 nM
[2]
  IC50: 17.8 nM
[3]
  IC50: 18.6 nM
[4]
  IC50: 7.24 nM

## CC(=O)OCCN1[C@H](C)CN(C[C@H]2C[C@@H]3c4ccccc4Cc4ccc(F)cc4[C@@H]3O2)C[C@@H]1C.O=C(O)C(=O)O [Compound 281]
[1]
  NET pIC50: <5
[2]
  5-HT2C pIC50: 7.87
[3]
  D2L pIC50: 7.74
[4]
  5-HT2A pIC50: 8.39

## O=S(=O)(Cc1ccccc1)N1CCN(CC2CC3c4ccccc4Cc4ccc(F)cc4C3O2)CC1 (centres unmarked) [Compound 105]
[1]
  IC50: > 10000 nM
[2]
  IC50: 30.9 nM
[3]
  IC50: 4.07 nM
[4]
  IC50: 4.68 nM

## Fc1ccc2c(c1)C1OC(CN3CCN(Cc4ccsc4)CC3)CC1c1ccccc1C2 (centres unmarked) [Compound 59]
[1]
  IC50: 1260 nM
[2]
  IC50: 49 nM
[3]
  IC50: 6.92 nM
[4]
  IC50: 14.8 nM

## Fc1ccc2c(c1)C1OC(CN3CCN(Cc4ccoc4)CC3)CC1c1ccccc1C2.O=C(O)C(F)(F)F (stereo not drawn) [Compound 61, [2R-(2α, 3aα, 12bβ)]1-(11-fluoro-3,3a,8,12b-tetrahydro-2H-1-oxa-dibenzo[e,h]-azulen-2-ylmethyl)-4-furan-3-ylmethyl-piperazine.trifluoroacetate (1:1)]
[1]
  NET pIC50: 5.88
[2]
  5-HT2C pIC50: 7.66
[3]
  D2L pIC50: 8.09
[4]
  5-HT2A pIC50: 8.03

## Fc1ccc2c(c1)C1OC(CN3CCN(Cc4ccc5ccccc5c4)CC3)CC1c1ccccc1C2 (centres unmarked) [Compound 74]
[1]
  IC50: 3160 nM
[2]
  IC50: 162 nM
[3]
  IC50: 30.9 nM
[4]
  IC50: 126 nM

## O=S(=O)(c1ccccc1)N1CCN(CC2CC3c4ccccc4Cc4ccc(F)cc4C3O2)CC1 (centres unmarked) [Compound 106]
[1]
  IC50: 9550 nM
[2]
  IC50: 61.7 nM
[3]
  IC50: 44.7 nM
[4]
  IC50: 16.6 nM

## COc1ccc2c(c1)C1OC(CN3CCC(O)CC3)CC1c1ccccc1O2.O=C(O)C(=O)O (racemic) [Compound 288]
[1]
  NET pIC50: <5
[2]
  5-HT2C pIC50: 6.71
[3]
  D2L pIC50: 6.08
[4]
  5-HT2A pIC50: 7.18

## Fc1ccc2c(c1)C1OC(CN3CCN(Cc4ccco4)CC3)CC1c1ccccc1C2 (centres unmarked) [Compound 60]
[1]
  IC50: 1550 nM
[2]
  IC50: 25.1 nM
[3]
  IC50: 6.31 nM
[4]
  IC50: 7.76 nM

## O=C(O)C(=O)O.OC1CCN(CC2CC3c4ccccc4Oc4ccc(F)cc4C3O2)CC1 (racemic) [Compound 282]
[1]
  NET pIC50: <5
[2]
  5-HT2C pIC50: 6.93
[3]
  D2L pIC50: 6.10
[4]
  5-HT2A pIC50: 7.00

## Fc1ccc2c(c1)C1OC(CN3CCCC(C4=NCCN4)C3)CC1c1ccccc1C2 (centres unmarked) [Compound 171]
[1]
  IC50: 1410 nM
[2]
  IC50: 18.2 nM
[3]
  IC50: 282 nM
[4]
  IC50: 28.2 nM
